Tests used:
Test in all cases: IHC of tumor biopsies, H-score change on-treatment vs pretreatment
Format in all cases: in vivo, human
cyclin D1 = test system: cyclin D1
Method: (§1) Pharmacodynamic markers were examined using peripheral blood samples, tumor and nevi biopsies (when available) and tumor imaging. BRAF mutation status was determined by Sanger sequencing. Pharmacodynamic markers analyzed, in available tumor/nevus samples obtained before treatment or archival tissue and during treatment on cycle 1, day 8 or day 15, including cytoplasmic p‐MEK, p‐ERK, BIM, c‐KIT, p‐AKT473, pS6 and PTEN, and nuclear p‐ERK, Ki‐67, PARP, cyclin D1, MITF, p27, and p53. Biomarker expression was determined by calculating the percentage of change in the H‐score (14) between on‐treatment and fresh/archival pretreatment specimens. Blood levels of VEGFR‐2 and were assessed before and at multiple time points while on treatment using enzyme‐linked immunosorbent assay (ELISA). […] Changes in standard uptake value (SUV) were determined by a blinded, independent central imaging review panel. Complete metabolic response (CMR) was complete resolution of tumor FDG‐PET uptake so SUV is the same as background. Partial metabolic response (PMR) decrease in sum of the tumor SUV of ≥25% from the baseline scan. Progressive metabolic disease (PMD) was defined as an increase in tumor SUV of ≥25% from the baseline scan, or the appearance of new FDG‐PET uptake in metastatic lesions. Stable metabolic disease (SMD) was defined as a change in tumor SUV between the PMR and PMD criteria.

pS6 = test system: pS6
Method: as §1

PARP = test system: PARP
Method: as §1

c-KIT = test system: c-KIT
Method: as §1

PTEN = test system: PTEN
Method: as §1

cytoplasmic p-ERK = test system: cytoplasmic p-ERK
Method: as §1

p53 = test system: p53
Method: as §1

## Cn1c(Nc2ccc(C(F)(F)F)cc2)nc2cc(Oc3ccnc(-c4ncc(C(F)(F)F)[nH]4)c3)ccc21 [RAF265]
Cyclin D1; DLs 7 and 7.1, n 5
  Cyclin D1 % change vs pretreatment, Mean (SD): +25 (113.6) %
  Cyclin D1 % change vs pretreatment, Median: 0%
Cyclin D1; in vivo
  cyclin D1, median decrease: 25%
pS6; All patients, n 19
  PS6 % change vs pretreatment, Mean (SD): +6.9 (70.8) %
  PS6 % change vs pretreatment, Median: -13%
pS6; DL 5, n 1
  PS6 % change vs pretreatment, Mean (SD): +255.6%
  PS6 % change vs pretreatment, Median: +255.6%
pS6; DL 6
  pS6, median decrease: 35.8%
pS6; DL 6, n 6
  PS6 % change vs pretreatment, Mean (SD): -20.6 (29.1) %
  PS6 % change vs pretreatment, Median: -35.8%
pS6; DLs 1 - 4, n 8
  PS6 % change vs pretreatment, Mean (SD): -16.8 (20.9) %
  PS6 % change vs pretreatment, Median: -18.9%
pS6; DLs 7 and 7.1, n 4
  PS6 % change vs pretreatment, Mean (SD): 33.4 (55.7) %
  PS6 % change vs pretreatment, Median: +16.3%
PARP; All patients, n 14
  PARP % change vs pretreatment, Mean (SD): +89.1 (172.3) %
  PARP % change vs pretreatment, Median: +33.3%
PARP; DL 6, n 3
  PARP % change vs pretreatment, Mean (SD): +20.00 (121.2) %
  PARP % change vs pretreatment, Median: 0.00%
PARP; DLs 1 - 4, n 8
  PARP % change vs pretreatment, Mean (SD): +65.1 (180.5) %
  PARP % change vs pretreatment, Median: -20%
PARP; DLs 7 and 7.1, n 3
  PARP % change vs pretreatment, Mean (SD): +222.2 (167.8) %
  PARP % change vs pretreatment, Median: +200.00%
c-KIT; All patients, n 8
  CKIT % change vs pretreatment, Median: 0%
c-KIT; DL 6, n 1
  CKIT % change vs pretreatment, Mean (SD): 0%
  CKIT % change vs pretreatment, Median: 0%
c-KIT; DLs 1 - 4, n 4
  CKIT % change vs pretreatment, Mean (SD): -60 (80) %
  CKIT % change vs pretreatment, Median: -100%
c-KIT; DLs 7 and 7.1, n 3
  CKIT % change vs pretreatment, Mean (SD): 0%
  CKIT % change vs pretreatment, Median: 0%
PTEN; All patients, n 18
  PTEN % change vs pretreatment, Mean (SD): -3.16 (32.4) %
  PTEN % change vs pretreatment, Median: 0%
PTEN; DL 5, n 2
  PTEN % change vs pretreatment, Mean (SD): 0%
  PTEN % change vs pretreatment, Median: 0%
PTEN; DL 6, n 5
  PTEN % change vs pretreatment, Mean (SD): -9.4 (27) %
  PTEN % change vs pretreatment, Median: 0%
PTEN; DLs 1 - 4, n 8
  PTEN % change vs pretreatment, Mean (SD): -5 (44.1) %
  PTEN % change vs pretreatment, Median: -7.4%
PTEN; DLs 7 and 7.1, n 3
  PTEN % change vs pretreatment, Mean (SD): 10 (17.3) %
  PTEN % change vs pretreatment, Median: 0%
Cytoplasmic p-ERK; 23 patients
  p-ERK IHC staining, on-treatment versus pretreatment: dose‐dependent p‐ERK inhibition
Cytoplasmic p-ERK; All patients, n 13
  cytoplasmic pERK % change vs pretreatment, Mean (SD): -3.6 (48.6) %
  cytoplasmic pERK % change vs pretreatment, Median: -11.8%
Cytoplasmic p-ERK; DL 5, n 2
  cytoplasmic pERK % change vs pretreatment, Mean (SD): +27.1 (56) %
  cytoplasmic pERK % change vs pretreatment, Median: +27.1%
Cytoplasmic p-ERK; DL 6, n 5
  cytoplasmic pERK % change vs pretreatment, Mean (SD): -27.0 (40.9) %
  cytoplasmic pERK % change vs pretreatment, Median: -50.00%
Cytoplasmic p-ERK; DLs 1 - 4, n 2
  cytoplasmic pERK % change vs pretreatment, Mean (SD): +52.3 (80) %
  cytoplasmic pERK % change vs pretreatment, Median: +52.3%
Cytoplasmic p-ERK; DLs 7 and 7.1, n 4
  cytoplasmic pERK % change vs pretreatment, Mean (SD): -17.8 (11.5) %
  cytoplasmic pERK % change vs pretreatment, Median: -13.5%
Cytoplasmic p-ERK; patients treated at DL1-5
  p-ERK expression change: increase in p‐ERK expression
Cytoplasmic p-ERK; patients treated at DL 6-7.1
  p-ERK abundance change: moderately decreased p‐ERK abundance
p53; All patients, n 20
  P53 % change vs pretreatment, Mean (SD): +42.14 (195.033) %
p53; DL 5, n 2
  P53 % change vs pretreatment, Mean (SD): +82.33(190.5) %
  P53 % change vs pretreatment, Median: +82.4%
p53; DL 6, n 4
  P53 % change vs pretreatment, Mean (SD): +49.32 (123.273) %
  P53 % change vs pretreatment, Median: -3.8%
p53; DLs 1 - 4, n 10
  P53 % change vs pretreatment, Mean (SD): -27.30 (49.484) %
  P53 % change vs pretreatment, Median: -29.2%
p53; DLs 7 and 7.1, n 4
  P53 % change vs pretreatment, Mean (SD): +188.5 (400.62) %
  P53 % change vs pretreatment, Median: 0%

From PMC5548886 (Cancer Medicine, 2017)
